Experimental data from US20250098726A1, “AEROSOLISABLE MATERIAL” (Nicoventures Trading Limited, priority 2022, published 2025).

Test: solubility trial of sensates in propylene glycol/glycerol mixture
Format: physicochemical
Conditions: PG:VG 70:30, sensate w/w % subtracted from PG (Symheat PV 1, WS-3 0.8, Ginger Extract 0.1 w/w %); one hour following addition of VG
Source text: Formulations were produced containing propylene glycol (PG) and glycerol (VG) at a 70:30 ratio with the w/w % sensate addition subtracted from the w/w % of propylene glycol as is typical in the art.

- Soluble: ✓
Compound: CCNC(=O)[C@@H]1C[C@H](C)CC[C@H]1C(C)C (stereo in doubt) [WS-3, N-ethyl-5-methyl-2-propan-2-ylcyclohexane-1-carboxamide]
